The target of this experiment is human A2A receptor (Homo sapiens (Human), UniProt P29274). The experiment in a line: competition binding assay using Scintillation Proximity technology. Particulars: membranes from CHO-K1 cells expressing the human A2a receptor; 2.0 nM tritiated compound; Cheng-Prusoff. In a few lines:
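Membranes (1.0 μg) from CHO-K1 cells expressing human A2A were treated with adenosine deaminase, then incubated 1 h at room temperature with compound (3000–0.15 nM) and 2.0 nM tritiated SCH-type ligand on WGA SPA beads in PBS plus 10 mM MgCl2. Nonspecific binding was defined with 1 μM CGS 15943. Ki was derived from EC50 via Cheng-Prusoff.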
In general terms: Scintillation proximity formats need no separation of bound from free tracer.

Molecules are shown by their SMILES.

By Ki is commonly meant a dissociation constant, usually derived from enzyme kinetics or from competition with a known ligand. A low value points to a stronger hold on the target.

Chain of human A2A receptor (P29274 whole entry): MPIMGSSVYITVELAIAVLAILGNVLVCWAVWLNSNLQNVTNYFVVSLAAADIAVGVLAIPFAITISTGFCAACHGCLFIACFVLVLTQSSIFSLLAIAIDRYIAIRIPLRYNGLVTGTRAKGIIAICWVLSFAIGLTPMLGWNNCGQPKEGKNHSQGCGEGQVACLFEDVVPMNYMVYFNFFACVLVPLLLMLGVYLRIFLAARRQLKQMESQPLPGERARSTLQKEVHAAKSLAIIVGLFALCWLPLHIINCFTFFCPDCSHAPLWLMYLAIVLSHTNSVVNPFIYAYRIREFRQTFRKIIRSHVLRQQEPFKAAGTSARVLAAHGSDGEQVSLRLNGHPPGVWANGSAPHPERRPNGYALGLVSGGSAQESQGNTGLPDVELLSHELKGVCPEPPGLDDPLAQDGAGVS

`Nc1nc2c3c(ccc2c2nc(CC(C(F)F)N4Cc5cccnc5C4)nn12)OC(F)(F)O3` (single isomer, unassigned) [Example 97, (R or S)-8-(3,3-difluoro-2-(5H-pyrrolo[3,4-b]pyridin-6(7H)-yl)propyl)-2,2-difluoro-[1,3]dioxolo[4,5-h][1,2,4]triazolo[1,5-c]quinazolin-5-amine] registered a Ki of 2.2 nM.
The value for `CC1(C)CN(Cc2nc3c4ccc5c(c4nc(N)n3n2)OC(F)(F)O5)C1` [Example 110, 8-[(3,3-dimethylazetidin-1-yl)methyl]-2,2-difluoro[1,3]dioxolo[4,5-h][1,2,4]triazolo[1,5-c]quinazolin-5-amine] was 2.9 nM; that for `Nc1nc2c3c(ccc2c2nc(CCN4CCC(F)(F)C4)nn12)OC(F)(F)O3` [Example 24, 8-[2-(3,3-difluoropyrrolidin-1-yl)ethyl]-2,2-difluoro[1,3] dioxolo[4,5-h][1,2,4]triazolo [1,5-c]quinazolin-5-amine] was 1.4 nM; that for `CC(F)(F)CN1CC(Cc2nc3c4ccc5c(c4nc(N)n3n2)OC(F)(F)O5)C1` [Example 152, 8-{[1-(2,2-difluoropropyl)azetidin-3-yl]methyl}-2,2-difluoro[1,3] dioxolo[4,5-h][1,2,4]triazolo[1,5-c]quinazolin-5-amine] was 5.5 nM.
On to `C[C@@H]1C[C@H](F)CN1CCc1nc2c3ccc4c(c3nc(N)n2n1)OC(F)(F)O4` [Example 22, 2,2-difluoro-8-{2-[(2R,4S)-4-fluoro-2-methylpyrrolidin-1-yl]ethyl}[1,3]dioxolo[4,5-h][1,2,4]triazolo[1,5-c]quinazolin-5-amine], for which the Ki came to 1.5 nM.
As to `Nc1nc2c3c(ccc2c2nc(C4CCCN(CCC(F)(F)F)C4)nn12)OC(F)(F)O3` (single isomer, unassigned) [Example 140, (R or S)-2,2-difluoro-8-(1-(3,3,3-trifluoropropyl)piperidin-3-yl)-[1,3]dioxolo[4,5-h][1,2,4]triazolo[1,5-c]quinazolin-5-amine], the inhibitory constant (Ki) was 0.8 nM.
Then `C[C@H](Cc1nc2c3ccc4c(c3nc(N)n2n1)OC(F)(F)O4)N1CCCC(C)(F)C1` (single isomer, unassigned) [Example 86, 2,2-difluoro-8-{(2R)-2-[(3R or 3S)-3-fluoro-3-methylpiperidin-1-yl]propyl}[1,3]dioxolo[4,5-h][1,2,4]triazolo[1,5-c]quinazolin-5-amine], with 16 nM; and `C[C@H]1CC(F)(F)CN1CCc1nc2c3ccc4c(c3nc(N)n2n1)OC(F)(F)O4` [Example 26, 8-{2-[(2S)-4,4-difluoro-2-methylpyrrolidin-1-yl]ethyl}-2,2-difluoro[1,3]dioxolo[4,5-h][1,2,4]triazolo[1,5-c]quinazolin-5-amine], with 3 nM.
Then `Nc1nc2c3c(ccc2c2nc(CN4CCN(c5ccc(F)cn5)CC45CC5)nn12)OC(F)(F)O3` [Example 103, 2,2-difluoro-8-{[7-(5-fluoropyridin-2-yl)-4,7-diazaspiro[2.5]oct-4-yl]methyl}[1,3]dioxolo[4,5-h][1,2,4] triazolo[1,5-c]quinazolin-5-amine], with 3.4 nM; and `Cc1csc(CN(CCc2nc3c4ccc5c(c4nc(N)n3n2)OC(F)(F)O5)CC2CC2)n1` [Example 60, 8-(2-{(cyclopropylmethyl)[(4-methyl-1,3-thiazol-2-yl)methyl]amino}ethyl)-2,2-difluoro[1,3]dioxolo[4,5-h][1,2,4]triazolo[1,5-c]quinazolin-5-amine], with 0.7 nM.
The value for `CC1(F)CCCN(CCc2nc3c4ccc5c(c4nc(N)n3n2)OC(F)(F)O5)C1` (single isomer, unassigned) [Example 65, (R or S)-2,2-difluoro-8-[2-(3-fluoro-3-methylpiperidin-1-yl)ethyl][1,3] dioxolo[4,5-h][1,2,4]triazolo[1,5-c] quinazolin-5-amine] was 4.2 nM; that for `Nc1nc2c3c(ccc2c2nc(CCN4CC5CNC[C@H]5C4)nn12)OC(F)(F)O3` (stereo partly drawn) [Example 52, 2,2-difluoro-8-{2-[(3aS)-hexahydropyrrolo[3,4-c]pyrrol-2(1H)-yl]ethyl}[1,3]dioxolo [4,5-h][1,2,4]triazolo[1,5-c]quinazolin-5-amine] was 40 nM.
Take `Nc1nc2c3c(ccc2c2nc(CCN4CCCC(F)(C(F)(F)F)C4)nn12)OC(F)(F)O3` (single isomer, unassigned) [Example 72, (R or S)-2,2-difluoro-8-(2-(3-fluoro-3-(trifluoromethyl)piperidin-1-yl)ethyl)-[1,3]dioxolo[4,5-h][1,2,4]triazolo[1,5-c]quinazolin-5-amine]: the Ki is 0.9 nM.
Then `Nc1nc2c3c(ccc2c2nc(CCN4C[C@H]5CCCN[C@H]5C4)nn12)OC(F)(F)O3` [Example 51, 2,2-difluoro-8-{2-[(4aR,7aR)-octahydro-6H-pyrrolo[3,4-b]pyridin-6-yl]ethyl}[1,3]dioxolo [4,5-h][1,2,4]triazolo[1,5-c]quinazolin-5-amine], with 55 nM; and `Nc1nc2c3c(ccc2c2nc(CCN4CC(F)(C(F)(F)F)C4)nn12)OC(F)(F)O3` [Example 21, 2,2-difluoro-8-{2-[3-fluoro-3-(trifluoromethyl)azetidin-1-yl]ethyl}[1,3]dioxolo[4,5-h][1,2,4]triazolo[1,5-c]quinazolin-5-amine], with 3.4 nM.
Then `Cc1nc2c(s1)CCN(CCc1nc3c4ccc5c(c4nc(N)n3n1)OC(F)(F)O5)C2` [Example 13, 2,2-difluoro-8-[2-(2-methyl-6,7-dihydro[1,3]thiazolo[4,5-c]pyridin-5(4H)-yl)ethyl][1,3] dioxolo[4,5-h][1,2,4]triazolo [1,5-c]quinazolin-5-amine], with 1.8 nM; and `Nc1nc2c3c(ccc2c2nc(CN4CCN(c5cccc(F)c5)CC45CC5)nn12)OC(F)(F)O3` [Example 104, 2,2-difluoro-8-{[7-(3-fluorophenyl)-4,7-diazaspiro[2.5]oct-4-yl]methyl} [1,3]dioxolo[4,5-h][1,2,4]triazolo [1,5-c]quinazolin-5-amine], with 8.7 nM; and `Nc1nc2c3c(ccc2c2nc(CN4Cc5ccc(F)cc5C4)nn12)OC(F)(F)O3` [Example 120, 2,2-difluoro-8-[(5-fluoro-1,3-dihydro-2H-isoindol-2-yl)methyl][1,3] dioxolo[4,5-h][1,2,4]triazolo[1,5-c]quinazolin-5-amine], with 2.7 nM.
The value for `Cc1ncc(N2CCN(Cc3nc4c5ccc6c(c5nc(N)n4n3)OC(F)(F)O6)[C@H](C)C2)s1` [Example 107, 2,2-difluoro-8-{[(2R)-2-methyl-4-(2-methyl-1,3-thiazol-5-yl)piperazin-1-yl]methyl}[1,3]dioxolo[4,5-h][1,2,4] triazolo[1,5-c]quinazolin-5-amine] was 4 nM.
Take `CC(Cc1nc2c3ccc4c(c3nc(N)n2n1)OC(F)(F)O4)N1Cc2cccnc2C1` (single isomer, unassigned) [Example 92, 8-[(2R or 2S)-2-(5,7-dihydro-6H-pyrrolo[3,4-b]pyridin-6-yl)propyl]-2,2-difluoro[1,3]dioxolo[4,5-h][1,2,4]triazolo[1,5-c]quinazolin-5-amine]: the Ki was determined as 4 nM.
Then `Nc1nc2c3c(ccc2c2nc(CCN4Cc5cccnc5C4)nn12)OC(F)(F)O3` [Example 6], with 6.5 nM.

The record behind these values is patent US11046714B2, “2,2-difluorodioxolo A2A receptor antagonists” (Merck Sharp & Dohme Corp., priority 2013, dated 2021).
